Laboratory results taken from PMC4279406, “Simultaneous targeting of PI3Kδ and a PI3Kδ-dependent MEK1/2-Erk1/2 pathway for therapy in pediatric B-cell acute lymphoblastic leukemia” (Oncotarget, 2014).
Like-named read-outs stand apart in the source and are kept apart here.

Experiments:
Experiment in all cases: Akt phosphorylation in isogenic Rh30-Myr-p110 cells (Western blot)
[1] = test system: Rh30-Myr-p110δ cells; type: cell-based, human; details: for EC50 / IC50: Homo sapiens; for EC50: Rh30-Myr-p110δ cells; for IC50: serum-free 12 h, compound 1 h, band intensity, mean of three experiments
Text: (§1) To assess the selectivity of X-370 in the context of an isogenic cellular background, we generated a panel of Rh30 human rhabdomyosarcoma cell lines each of which stably expresses a single myristoylated (Myr)-epitope tagged p110 human class I PI3K catalytic subunit, termed as Rh30-Myr-p110α, Rh30-Myr-p110β, Rh30-Myr-p110γ or Rh30-Myr-p110δ. In these cells, endogenous PI3K is not activated under serum-free culture conditions, whereas the ectopically expressed p110 isoforms are membrane-anchored and constitutively active due to myristoylation at N-terminal. Utilizing this cell panel, isoform-specific PI3K activity can be determined for any given inhibitor[25]. These cells were treated with X-370 and phosphorylated Akt was detected as the readout of PI3K activity. X-370 inhibited phosphorylation of Akt at both Thr308 and Ser473 in a dose-dependent manner in four tested cell lines (Figure 2A). […] Similar property was also observed in CAL-101 (Figure S2).
(§2) Cell lysates were probed with indicated antibodies. The IC50 values were calculated based on relative band intensity measured with ImageQuant™ TL (GE Healthcare Life Sciences, Piscataway, NJ) (B). Data shown are mean values from three independent experiments. (C, D, E, F) X-370 blocked stimuli-triggered PI3Kδ activation. MEF cells and THP-1 were starved in serum-free medium for 12 h or 4 h respectively and X-370 were added for an additional 1 h treatment following stimulation of IGF-1 at 100 ng/ml for MEF cells (C), LPA at 10 μM for MEF cells (D), MCP-1 at 100ng/ml for THP-1 (E) and M-CSF at 50 ng/ml for THP-1 (F). Similar results were derived from 3 independent experiments. TEXT PRINTED IN THE PICTURE: (B) X-370: IC50 (μM) in Rh30-Myr-p110s, Akt pT308, PI3Kα: 0.68; IC50 (μM) in Rh30-Myr-p110s, Akt pT308, PI3Kβ: 0.4; IC50 (μM) in Rh30-Myr-p110s, Akt pT308, PI3Kγ: 0.46; IC50 (μM) in Rh30-Myr-p110s, Akt pT308, PI3Kδ: 0.032; IC50 (μM) in Rh30-Myr-p110s, Akt pS473, PI3Kα: 0.53; IC50 (μM) in Rh30-Myr-p110s, Akt pS473, PI3Kβ: 0.29; IC50 (μM) in Rh30-Myr-p110s, Akt pS473, PI3Kγ: 0.23; IC50 (μM) in Rh30-Myr-p110s, Akt pS473, PI3Kδ: 0.02 DOUBTS OF THE COPYIST ABOUT THIS PICTURE: Panel B prints no substance label in the table itself; the label X-370 is taken from the other panels of the same picture, where it is the only substance printed. […]
(§3) Cells were treated as indicated conditions and then subjected to lysate to perform standard Western blot as described previously1. Briefly, whole-cell lysates and SDS-loading buffer diluted cell fractions were analyzed on SDS-PAGE gels. Transfer to nitrocellulose membranes, nonfat milk blocking, probing with indicated primary antibodies and the corresponding HRP-conjugated second antibodies.
(§4) Chemiluminescence were performed and captured using ImageQuant LAS 4000 (GE healthcare Life Sciences, Piscataway, NJ, USA) and band intensity was measure both with ImageQuant™ TL (GE Healthcare Life Sciences) 2. […]
(§5) (also on this page, place not known: PI3Kδ -dependent MEK1/2 - B -cell previously 1. whole -cell SDS -loading SDS -PAGE HRP -conjugated (G E A B Val828 Trp760 Thr750 Met752 Tyr813 affinity pocket specificity pocket hinge Glu826 CAL-101 X-370) […]
(1 picture or pasted object on this page, not shown here) […]
in serum-free medium for 12 h and then incubated with serially diluted CAL -101 for an additional 1 h.
Cell lysates were probed with indicated antibodies. The IC50 values were calculated based on relative band intensity measured with ImageQuant™ TL (GE Healthcare Life Sciences, Piscataway, NJ). Data shown are mean values from three independent experiments.
Table S1: Inhibitory activity of X-370 against protein kinases […]
kinome at 10 μM. The relative kianse activity left in the presence of 10 μM were shown (Mi llipore […]
Kinase activity (% of control) Kinase activity (% of control) Kinase activity (% of control) […]
CDK1/cyclinB 97 Lck activated 89 Ret 125 […]

[2] = test system: Rh30-Myr-p110α cells; type: cell-based; details: Homo sapiens, serum-free 12 h, compound 1 h, band intensity, mean of three experiments
Text: as §1, §2, §3, §4, §5
(§6) (1 picture or pasted object on this page, not shown here)

[3] = test system: Rh30-Myr-p110β cells; type: cell-based; details: Homo sapiens, serum-free 12 h, compound 1 h, band intensity, mean of three experiments
Text: as §1, §2, §3, §4, §5, §6

[4] = test system: Rh30-Myr-p110γ cells; type: cell-based; details: Homo sapiens, serum-free 12 h, compound 1 h, band intensity, mean of three experiments
Text: as §1, §2, §3, §4, §5, §6

With `O=C(N1CCCC1)N1CCC(n2cnc3c(-n4c(C(F)F)nc5ccccc54)nc(N4CCOCC4)nc32)CC1` [X-370] the “fold lower EC50 in Rh30-Myr-p110δ than in isogenic Rh30-Myr-p110α/β/γ cells” value ([1]; Akt pT308 and pS473) was “at least 10 fold”, the EC50 ([1]; read-out: EC50, Akt phosphorylation (Akt pS473)) was 20 nM and the EC50 ([1]; read-out: EC50, Akt phosphorylation (Akt pT308)) was 32 nM. It also gave an IC50 ([1]; read-out: IC50 (μM) in Rh30-Myr-p110s, Akt pS473, PI3Kδ) of 0.02 µM, an IC50 ([1]; read-out: IC50 (μM) in Rh30-Myr-p110s, Akt pT308, PI3Kδ) of 0.032 µM and an IC50 ([2]; read-out: IC50 (μM) in Rh30-Myr-p110s, Akt pS473, PI3Kα) of 0.53 µM. It also gave an IC50 ([2]; read-out: IC50 (μM) in Rh30-Myr-p110s, Akt pT308, PI3Kα) of 0.68 µM, an IC50 ([3]; read-out: IC50 (μM) in Rh30-Myr-p110s, Akt pS473, PI3Kβ) of 0.29 µM and an IC50 ([3]; read-out: IC50 (μM) in Rh30-Myr-p110s, Akt pT308, PI3Kβ) of 0.4 µM. For the same molecule, the IC50 ([4]; read-out: IC50 (μM) in Rh30-Myr-p110s, Akt pS473, PI3Kγ) was 0.23 µM and the IC50 ([4]; read-out: IC50 (μM) in Rh30-Myr-p110s, Akt pT308, PI3Kγ) was 0.46 µM.
